These results are taken from patent US11992471B2, “Reelin/VEGF-C production/activation promoter and skin external composition using the same” (AMOREPACIFIC CORPORATION, priority 2021, dated 2024).

SMILES strings stand for the structures.

What all share (type): cell-based
The subject of series [1] is Human dermal lymphatic endothelial cells (HDLEC). Put plainly: Cytotoxicity analysis (WST-8 cell viability). Conditions: within a concentration range of 200 ppm, cultured 24 hours and 72 hours, FIG. 1. The protocol:
Human dermal lymphatic endothelial cells (HDLEC, PromoCell, Germany) were newly cultured in 96 well dishes for one day and then treated with a compound represented by Chemical Formula E-1 (Biogenics Company) at each concentration of 0 ppm ( ? ) to 200 ppm ( ? ). The cells were cultured for 24 hours and 72 hours, and then measured with respect to absorbance at 450 nm by using a QuantiMax WST-8 Cell viability assay kit to check cell viability, and the results are shown in FIG. 1.
For orientation: Tetrazolium assays rely on reduction of a dye to a coloured formazan, in cell work by metabolically active cells.

In a further series the test system is VEGF-C. The experiment in a line: VEGF-C cytokine analysis (VEGFC human ELISA). The conditions noted are these: HDLEC, 1 ppm and 10 ppm, 48 hours, compared with cells with no treatment (100%), FIG. 3. Here is the method: After culturing human dermal lymphatic endothelial cells in 6 well plates for 24 hours, while the cells with no treatment (N.T) were used as a reference (100%), the cells were treated with the compound represented by Chemical Formula E-1 at each concentration of 1 ppm and 10 ppm and cultured for 48 hours and then measured with respect to production and activity of VEGF-C through a VEGF-C cytokine analysis by using a VEGFC human ELISA Kit (ThermoFisher, U.S.A.) according to a manual, and the results are shown in FIG. 3.
Background: An ELISA detects its analyte on a solid surface through an enzyme-linked reagent.

The subject of the next series is reelin. The experiment in a line: Reelin cytokine analysis (human reelin ELISA). The conditions noted are these: HDLEC, 1 ppm and 10 ppm, 48 hours, compared with cells with no treatment (100%), FIG. 2. The protocol:
After culturing human dermal lymphatic endothelial cells in 6 well plates for 24 hours, while the cells with no treatment (N.T) were used as a reference (100%), the cells were treated with the compound represented by Chemical Formula E-1 at each concentration of 1 ppm and 10 ppm and cultured for 48 hours and then measured with respect to production and activity of reelin through a reelin cytokine analysis by using human reelin ELISA Kit (Mybiosource, U.S.A.) according to a manual, and the results are shown in FIG. 2.

Regarding `NCCS(=O)(=O)O` [Chemical Formula E-1], in series [1], the “cytotoxicity (cell viability)” value was “no cytotoxicity”. In the series with VEGF-C, the “production and activity of VEGF-C” value was “further improve production and activity of VEGF-C”. For the same compound, the “production and activity of reelin” value in the series with reelin was “further improve production and activity of reelin”.
